pIC50: −log10 of the molar value.
Biological target: T1, human Cot/Tpl2 kinase (Homo sapiens, UniProt P41279)
T1 construct: human Cot/Tpl2 kinase construct encoding residues 30-398; 6His (N); made in house; host or cells: Sf9 insect cells, baculovirus system (BD Biosciences)
Assay: Tpl2/Cot kinase assay: GST-MEK1 phosphorylation detected by ELISA (DELFIA Eu)
Assay type: biochemical
In short: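 His-tagged human Tpl2 from Sf9 cells, Ni-affinity and size-exclusion purified (monomer). 0.4 nM Tpl2 with 35 nM GST-MEK1, 50 uM ATP, MOPS pH 7.2, 1% DMSO, 1 h at 30° C; EDTA stop. MEK1 Ser217/221 phosphorylation detected by anti-phospho-MEK1 and Eu-labelled secondary ELISA; IC50 fitted.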

[1] = Tpl2/Cot kinase, GST-MEK1 substrate, 50 uM ATP, 1 h at 30° C., Table 2
[2] = Table 2, Tpl2/Cot kinase, GST-MEK1 substrate, 50 uM ATP
[3] = 0.4 nM Tpl2, 35 nM GST-MEK1, 50 uM ATP, 1 h at 30° C.
[4] = Tpl2/Cot kinase, GST-MEK1 substrate, 50 uM ATP

T1 sequence (P41279 30-398): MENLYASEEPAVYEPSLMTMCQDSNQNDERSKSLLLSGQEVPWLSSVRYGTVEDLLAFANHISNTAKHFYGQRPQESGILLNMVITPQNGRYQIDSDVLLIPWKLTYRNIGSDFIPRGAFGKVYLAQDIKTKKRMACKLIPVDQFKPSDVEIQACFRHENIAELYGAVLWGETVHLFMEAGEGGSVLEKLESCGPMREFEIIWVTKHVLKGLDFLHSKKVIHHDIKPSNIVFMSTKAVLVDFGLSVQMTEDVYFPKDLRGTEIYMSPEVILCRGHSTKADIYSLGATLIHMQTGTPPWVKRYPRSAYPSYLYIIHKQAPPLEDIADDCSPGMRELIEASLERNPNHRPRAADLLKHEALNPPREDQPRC

SMILES | pIC50 [3] | pIC50 [4] | also measured
N#Cc1cnc2c(Cl)cc(NCC3CCCN(C(=O)CNc4cccnc4)C3)cc2c1Nc1ccc(F)c(Cl)c1 (stereo not drawn) [Example 923] | – | – | pIC50 [1]: 6.25
N#Cc1cnc2ccc(NCc3cnc[nH]3)cc2c1NC1CCCC1 [Example 417] | – | – | pIC50 [2]: 6.52
CC(C)N1CCC[C@@H]1Cn1cc(CNc2cc(Cl)c3ncc(C#N)c(Nc4ccc(F)c(Cl)c4)c3c2)nn1 [Example 893] | – | 7.34 | –
CC(C)N1CCC(Cn2cc(CNc3cc(Br)c4ncc(C#N)c(Nc5ccc(F)c(Cl)c5)c4c3)nn2)CC1 [Example 567] | – | – | pIC50 [2]: 7.54
CC(C)(C)OC(=O)N1CCN(CCCn2cc(CNc3cc(Br)c4ncc(C#N)c(Nc5ccc(F)c(Cl)c5)c4c3)nn2)CC1 [Example 591] | – | – | pIC50 [2]: 5.89
CN(C)C(=O)Cn1cc(CNc2cc(Br)c3ncc(C#N)c(Nc4ccc(F)c(Cl)c4)c3c2)nn1 [Example 834] | – | 7.85 | –
N#Cc1cnc2c(Cl)cc(NC3CCCC3n3cc(CCO)nn3)cc2c1Nc1ccc(F)c(Cl)c1 (stereo not drawn) [Example 803] | – | 7.17 | –
N#Cc1cnc2ccc(NCc3ccc(=O)[nH]c3)cc2c1Nc1ccc(F)c(F)c1 [Example 341] | – | – | pIC50 [2]: 6.40
N#Cc1cnc2ccc(NCc3nccn3CC(=O)N3CCOCC3)cc2c1Nc1ccc(F)c(Cl)c1 [Example 138, 4-(3-chloro-4-fluorophenylamino)-6-((1-(2-morpholino-2-oxoethyl)-1H-imidazol-2-yl)methylamino)quinoline-3-carbonitrile] | 7.57 | – | –
N#Cc1cnc2c(Cl)cc(NCc3cn(C4CCCNCC4)nn3)cc2c1Nc1ccc(F)c(Cl)c1 (stereo not drawn) [Example 1007] | – | – | pIC50 [1]: 7.80
CC(O)Cc1nn[nH]c1CNc1cc(Br)c2ncc(C#N)c(Nc3ccc(F)c(Cl)c3)c2c1 (stereo not drawn) [Example 318, 8-bromo-4-(3-chloro-4-fluorophenylamino)-6-((5-(2-hydroxypropyl)-3H-1,2,3-triazol-4-yl)methylamino)quinoline-3-carbonitrile] | 8.24 | – | –
CN(C)CC#Cc1ncn(COCc2ccccc2)c1CNc1cc(Cl)c2ncc(C#N)c(Nc3ccc(F)c(Cl)c3)c2c1 [Example 460] | – | – | pIC50 [2]: 5.70
CC(C)(C)OC(=O)N1CCC[C@@H]1Cn1cc(CNc2cc(Cl)c3ncc(C#N)c(Nc4ccc(F)c(Cl)c4)c3c2)nn1 [Example 887] | – | 6.80 | –
N#Cc1cnc2c(Br)cc(NCc3cn(Cc4ccncc4)nn3)cc2c1Nc1ccc(F)c(Cl)c1 [Example 495] | – | – | pIC50 [2]: 8.32
N#Cc1cnc2c(Cl)cc(NCc3cn(CCOC(N)=O)nn3)cc2c1Nc1ccc(F)c(Cl)c1 [Example 599] | – | – | pIC50 [2]: 8.23
N#Cc1cnc2c(Br)cc(NCc3ccc(OC(F)(F)C(F)F)cc3)cc2c1Nc1ccc(F)c(Cl)c1 [Example 424] | – | – | pIC50 [2]: < 4.40

SMILES | pIC50 [3] | pIC50 [4] | also measured
CN1CCC(Cn2cc(CNc3cc(Br)c4ncc(C#N)c(Nc5ccc(F)c(Cl)c5)c4c3)nn2)CC1 [Example 680] | – | 7.92 | –
N#Cc1cnc2c(Br)cc(NCc3cn(CCCN4CCNCC4)nn3)cc2c1Nc1ccc(F)c(Cl)c1 [Example 768] | – | 6.96 | –
CN(C)Cc1ccc2cc(CNc3ccc4ncc(C#N)c(Nc5ccc(F)c(Cl)c5)c4c3)[nH]c2c1 [Example 154, 4-(3-chloro-4-fluorophenylamino)-6-((6-((dimethylamino)methyl)-1H-indol-2-yl)methylamino)quinoline-3-carbonitrile] | 5.60 | – | –
N#Cc1cnc2c(Cl)cc(N(Cc3cn(C4CCN(CC5CC5)CC4)nn3)CC3CC3)cc2c1Nc1ccc(F)c(Cl)c1 [Example 1028] | – | – | pIC50 [1]: 6.39
N#Cc1cnc2c(Br)cc(NCc3cncn3O)cc2c1Nc1ccc(F)c(Cl)c1 [Example 436] | – | – | pIC50 [2]: 6.82
N#Cc1cnc2ccc(NCc3cc4ccccc4[nH]3)cc2c1Nc1ccc(F)c(Cl)c1 [Example 157, 6-((1H-indol-2-yl)methylamino)-4-(3-chloro-4-fluorophenylamino)quinoline-3-carbonitrile] | 5.07 | – | –
CN(C)Cc1cc(NCCN2CCOCC2)cc2c(Nc3cccc(Br)c3)c(C#N)cnc12 [Example 134, 4-(3-bromophenylamino)-8-((dimethylamino)methyl)-6-(2-morpholinoethylamino)quinoline-3-carbonitrile] | < 4.40 | – | –
N#Cc1cnc2ccc(NCc3cccnc3)cc2c1NC1CCCCCC1 [Example 246, 4-(cycloheptylamino)-6-[(pyridin-3-ylmethyl)amino]quinoline-3-carbonitrile] | 5.62 | – | –
N#Cc1cnc2c(Cl)cc(NCC(=O)Nc3cccnc3)cc2c1Nc1ccc(F)c(Cl)c1 [Example 601] | – | – | pIC50 [2]: 6.96
N#Cc1cnc2c(Br)cc(NCc3cn(CCOC(N)=O)nn3)cc2c1Nc1ccc(F)c(Cl)c1 [Example 833] | – | 8.05 | –
CC1(O)CCC(n2cc(CNc3cc(Cl)c4ncc(C#N)c(Nc5ccc(F)c(Cl)c5)c4c3)nn2)CC1 (stereo not drawn) [Example 1060] | – | – | pIC50 [1]: 7.35
COCCn1cc(CNc2cc(Br)c3ncc(C#N)c(Nc4ccc(F)c(Cl)c4)c3c2)nn1 [Example 698] | – | 7.74 | –
N#Cc1cnc2ccc(NC3CCN(Cc4ccccc4)CC3)cc2c1Nc1ccc(F)c(Cl)c1 [Example 378] | – | – | pIC50 [2]: 5.77
CN1CCCN(CCCn2cc(CNc3cc(Cl)c4ncc(C#N)c(Nc5ccc(F)c(Cl)c5)c4c3)nn2)CC1 [Example 625] | – | – | pIC50 [2]: 7.32
CN1CCN(S(=O)(=O)c2ccc(CNc3ccc4ncc(C#N)c(Nc5ccc(F)c(Cl)c5)c4c3)cc2)CC1 [Example 122, 6-(4-(4-methylpiperazin-1-ylsulfonyl)benzylamino)-4-(3-chloro-4-fluorophenylamino)quinoline-3-carbonitrile] | 6.24 | – | –
CCN1CCC(CCn2cc(CNc3cc(Br)c4ncc(C#N)c(Nc5ccc(F)c(Cl)c5)c4c3)nn2)CC1 [Example 568] | – | – | pIC50 [2]: 7.19

Now from value to compound, other results behind:

pIC50 [3] | pIC50 [4] | SMILES | also measured
7.68 | – | N#Cc1cnc2c(F)cc(NCc3cnc[nH]3)cc2c1Nc1ccc(F)c(Cl)c1 [Example 265, 4-[(3-Chloro-4-fluorophenyl)amino]-8-fluoro-6-[(1H-imidazol-5-ylmethyl)amino]quinoline-3-carbonitrile] | –
6.60 | – | CN(C)C(=O)c1cc(NCc2ccc(CO)o2)cc2c(Nc3ccc(F)c(Cl)c3)c(C#N)cnc12 [Example 88, 4-(3-chloro-4-fluorophenylamino)-3-cyano-6-((5-(hydroxymethyl)furan-2-yl)methylamino)-N,N-dimethylquinoline-8-carboxamide] | –
– | 8.59 | CN(C)C(=O)N1CCC(Cn2cc(CNc3cc(Cl)c4ncc(C#N)c(Nc5ccc(F)c(Cl)c5)c4c3)nn2)CC1 [Example 828] | –
– | 8.72 | N#Cc1cnc2c(Cl)cc(NCc3cn(CCCNC(=O)C4CC4)nn3)cc2c1Nc1ccc(F)c(Cl)c1 [Example 912] | –
– | 7.89 | CN1CCN(C(=O)Cn2cc(CNc3cc(Cl)c4ncc(C#N)c(Nc5ccc(F)c(Cl)c5)c4c3)nn2)CC1 [Example 822] | –
– | 8.17 | CN(C)CCNC(=O)Cn1cc(CNc2cc(Cl)c3ncc(C#N)c(Nc4ccc(F)c(Cl)c4)c3c2)nn1 [Example 818] | –
– | 8.28 | N#Cc1cnc2c(Cl)cc(NCc3cn(Cc4ccncc4)cn3)cc2c1Nc1ccc(F)c(Cl)c1 [Example 787] | –
6.27 | – | N#Cc1cnc2ccc(NCc3cccc(O)c3)cc2c1Nc1ccc(F)c(Cl)c1 [Example 53, 4-(3-Chloro-4-fluoro-phenylamino)-6-(3-hydroxy-benzylamino)-quinoline-3-carbonitrile] | –
8.23 | – | N#Cc1cnc2c(Cl)cc(NCc3nnn4ccccc34)cc2c1Nc1ccc(F)c(Cl)c1 [Example 216, 6-([1,2,3]triazolo[1,5-a]pyridin-3-ylmethylamino)-8-chloro-4-(3-chloro-4-fluorophenylamino)quinoline-3-carbonitrile] | –
6.70 | – | N#Cc1cccc(CNc2ccc3ncc(C#N)c(Nc4ccc(F)c(Cl)c4)c3c2)c1 [Example 10, 4-(3-Chloro-4-fluoro-phenylamino)-6-(3-cyano-benzylamino)-quinoline-3-carbonitrile] | –
– | 5.80 | CN(C)CCNC(=O)CNc1cc(Cl)c2ncc(C#N)c(Nc3ccc(F)c(Cl)c3)c2c1 [Example 778] | –
– | 6.10 | N#Cc1cnc2c(Cl)cc(NCc3cn(CC4CCCCC4)nn3)cc2c1Nc1ccc(F)c(Cl)c1 [Example 755] | –
– | 8.15 | N#Cc1cnc2c(Cl)cc(NCc3cn(Cc4cccnc4)cn3)cc2c1Nc1ccc(F)c(Cl)c1 [Example 726] | –
7.48 | – | N#Cc1cnc2c(Br)cc(NCc3[nH]cnc3-c3ccccc3)cc2c1Nc1ccc(F)c(Cl)c1 [Example 111, 8-bromo-4-(3-chloro-4-fluorophenylamino)-6-((4-phenyl-1H-imidazol-5-yl)methylamino)quinoline-3-carbonitrile] | –
7.23 | – | N#Cc1cnc2c(Cl)cc(NCc3cc4n(n3)CCO4)cc2c1Nc1ccc(F)c(Cl)c1 [Example 188, 8-chloro-4-(3-chloro-4-fluorophenylamino)-6-((2,3-dihydropyrazolo[5,1-b]oxazol-6-yl)methylamino)quinoline-3-carbonitrile] | –
8.00 | – | N#Cc1cnc2c(Cl)cc(NCc3cn(CCN4CCOC4=O)nn3)cc2c1Nc1ccc(F)c(Cl)c1 [Example 222, 8-chloro-4-(3-chloro-4-fluorophenylamino)-6-((1-(2-(2-oxooxazolidin-3-yl)ethyl)-1H-1,2,3-triazol-4-yl)methylamino)quinoline-3-carbonitrile] | –
< 4.40 | – | N#Cc1cnc2c(C(F)(F)F)cc(NCc3ccccc3F)cc2c1Nc1ccc(F)c(Cl)c1 [Example 235, 4-[(3-chloro-4-fluorophenyl)amino]-6-[(2-fluorobenzyl)amino]-8-(trifluoromethyl)quinoline-3-carbonitrile] | –
– | 7.02 | CC(=O)N1CCCC(Nc2cc(Cl)c3ncc(C#N)c(Nc4ccc(F)c(Cl)c4)c3c2)C1 (stereo not drawn) [Example 872] | –
– | 7.48 | N#Cc1cnc2c(Cl)cc(NCc3cn(CCN4CCOCC4)cn3)cc2c1Nc1ccc(F)c(Cl)c1 [Example 670] | –

Reference: patent US20060264460A1 (Wyeth, priority 2005, published 2006)
